Data from ChEMBL document CHEMBL1149774, “Synthesis of N-(5,7-diamino-3-phenyl-quinoxalin-2-yl)-3,4,5-substituted anilines and N-[4[(5,7-diamino-3-phenylquinoxalin-2-yl)amino]benzoyl]-l-glutamic acid diethyl ester: evaluation of in vitro anti-cancer and anti-folate activities” (Eur J Med Chem, 2008).

Key:
Type in all cases: functional
[1] = tested on: CAKI-1; experiment: Growth inhibition of human CAKI1 cells after 48 hrs by SRB staining method; conditions: CAKI-1, 48 h
[2] = tested on: EKVX; experiment: Growth inhibition of human EKVX cells after 48 hrs by SRB staining method
[3] = tested on: IGROV-1; experiment: Growth inhibition of human IGROV1 cells after 48 hrs by SRB staining method; conditions: IGROV-1, 48 h
[4] = tested on: RPMI-8226; experiment: Growth inhibition of human RPMI8226 cells after 48 hrs by SRB staining method; conditions: RPMI-8226, 48 h
[5] = tested on: SK-MEL-2; experiment: Growth inhibition of human SK-MEL-2 cells after 48 hrs by SRB staining method; conditions: SK-MEL-2, 48 h
[6] = tested on: SF-295; experiment: Growth inhibition of human SF295 cells after 48 hrs by SRB staining method; conditions: SF-295, 48 h
[7] = tested on: K562; experiment: Growth inhibition of human K562 cells after 48 hrs by SRB staining method; conditions: K562, 48 h
[8] = tested on: UACC-62; experiment: Growth inhibition of human UACC62 cells after 48 hrs by SRB staining method; conditions: UACC-62, 48 h
[9] = tested on: OVCAR-4; experiment: Growth inhibition of human OVCAR4 cells after 48 hrs by SRB staining method; conditions: OVCAR-4, 48 h
[10] = tested on: SNB-19; experiment: Growth inhibition of human SNB19 cells after 48 hrs by SRB staining method; conditions: SNB-19, 48 h
[11] = tested on: OVCAR-3; experiment: Growth inhibition of human OVCAR-3 cells after 48 hrs by SRB staining method; conditions: OVCAR-3, 48 h
[12] = tested on: T47D; experiment: Growth inhibition of human T47D cells after 48 hrs by SRB staining method
[13] = Growth inhibition of human HS 578T cells after 48 hrs by SRB staining method
[14] = tested on: SW-620; experiment: Growth inhibition of human SW620 cells after 48 hrs by SRB staining method; conditions: SW-620, 48 h
[15] = tested on: HL-60; experiment: Growth inhibition of human HL60 cells after 48 hrs by SRB staining method; conditions: HL-60, 48 h
[16] = tested on: SN12C; experiment: Growth inhibition of human SN12C cells after 48 hrs by SRB staining method
[17] = tested on: NCI-H226; experiment: Growth inhibition of human NCI-H226 cells after 48 hrs by SRB staining method; conditions: NCI-H226, 48 h
[18] = tested on: U-251; experiment: Growth inhibition of human U251 cells after 48 hrs by SRB staining method; conditions: U-251, 48 h
[19] = tested on: RXF 393; experiment: Growth inhibition of human RXF393 cells after 48 hrs by SRB staining method; conditions: RXF 393, 48 h
[20] = tested on: HCT-15; experiment: Growth inhibition of human HCT15 cells after 48 hrs by SRB staining method; conditions: HCT-15, 48 h
[21] = tested on: NCI-H522; experiment: Growth inhibition of human NCI-H522 cells after 48 hrs by SRB staining method; conditions: NCI-H522, 48 h
[22] = tested on: 786-0; experiment: Growth inhibition of human 786-0 cells after 48 hrs by SRB staining method; conditions: 786-0, 48 h
[23] = tested on: PC-3; experiment: Growth inhibition of human PC3 cells after 48 hrs by SRB staining method; conditions: PC-3, 48 h
[24] = tested on: DU-145; experiment: Growth inhibition of human DU145 cells after 48 hrs by SRB staining method; conditions: DU-145, 48 h
[25] = tested on: NCI-H23; experiment: Growth inhibition of human NCI-H23 cells after 48 hrs by SRB staining method; conditions: NCI-H23, 48 h
[26] = tested on: NCI/ADR-RES; experiment: Growth inhibition of human NCI/ADR-RES cells after 48 hrs by SRB staining method
[27] = tested on: HOP-62; experiment: Growth inhibition of human HOP62 cells after 48 hrs by SRB staining method; conditions: HOP-62, 48 h
[28] = tested on: HCT-116; experiment: Growth inhibition of human HCT116 cells after 48 hrs by SRB staining method; conditions: HCT-116, 48 h
[29] = tested on: ACHN; experiment: Growth inhibition of human ACHN cells after 48 hrs by SRB staining method
[30] = tested on: OVCAR-5; experiment: Growth inhibition of human OVCAR5 cells after 48 hrs by SRB staining method; conditions: OVCAR-5, 48 h
[31] = tested on: UO-31; experiment: Growth inhibition of human UO31 cells after 48 hrs by SRB staining method; conditions: UO-31, 48 h
[32] = tested on: SF-268; experiment: Growth inhibition of human SF268 cells after 48 hrs by SRB staining method; conditions: SF-268, 48 h
[33] = tested on: TK-10; experiment: Growth inhibition of human TK10 cells after 48 hrs by SRB staining method; conditions: TK-10, 48 h
[34] = read-out: pLC50 (the source's name) (converted)

With `COc1ccc(Nc2nc3cc(N)cc(N)c3nc2-c2ccccc2)cc1` the GI50 [1] was 35.5 µM, the CC50 [1, 34] was over 100 µM and the TGI ([1]; read-out: pTGI (converted)) was over 100 µM. For the same compound, the GI50 [2] was 25.7 µM, the CC50 [2, 34] was over 100 µM and the TGI ([2]; read-out: pTGI (converted)) was over 100 µM. It also gave a GI50 [3] of 15.5 µM, an LC50 [3] of 83.2 µM and a TGI ([3]; read-out: pTGI (converted)) of 35.5 µM. It also gave a GI50 [4] of 19.1 µM, a CC50 [4, 34] of over 100 µM and a TGI ([4]; read-out: pTGI (converted)) of over 100 µM. The GI50 [5] was 15.5 µM, the LC50 [5] was 63.1 µM and the TGI ([5]; read-out: pTGI (converted)) was 31.6 µM. For the same compound, the GI50 [6] was 31.6 µM, the LC50 [6] was over 100 µM and the TGI ([6]; read-out: pTGI (converted)) was over 100 µM. The GI50 [7] was 29.5 µM, the CC50 [7, 34] was over 100 µM and the TGI ([7]; read-out: pTGI (converted)) was over 100 µM. The GI50 [8] was 17 µM, the LC50 [8] was 55 µM and the TGI ([8]; read-out: pTGI (converted)) was 30.2 µM. It also gave a GI50 [9] of 10.5 µM, an LC50 [9] of 46.8 µM and a TGI ([9]; read-out: pTGI (converted)) of 21.9 µM. The GI50 [10] was 33.9 µM, the LC50 [10] was over 100 µM and the TGI ([10]; read-out: pTGI (converted)) was over 100 µM. The GI50 [11] was 17.4 µM, the LC50 [11] was 79.4 µM and the TGI ([11]; read-out: pTGI (converted)) was 37.2 µM. It also gave a GI50 [12] of 17.8 µM, a CC50 [12, 34] of over 100 µM and a TGI ([12]; read-out: pTGI (converted)) of 53.7 µM. It also gave a GI50 [13] of 14.5 µM, a CC50 [13, 34] of over 100 µM and a TGI ([13]; read-out: pTGI (converted)) of 46.8 µM. The GI50 [14] was 22.4 µM, the CC50 [14, 34] was 60.3 µM and the TGI ([14]; read-out: pTGI (converted)) was 37.2 µM. It also gave a GI50 [15] of 34.7 µM, a CC50 [15, 34] of over 100 µM and a TGI ([15]; read-out: pTGI (converted)) of over 100 µM. For the same compound, the GI50 [16] was 20.4 µM, the CC50 [16, 34] was over 100 µM and the TGI ([16]; read-out: pTGI (converted)) was 57.5 µM. For the same compound, the GI50 [17] was 24 µM, the LC50 [17] was over 100 µM and the TGI ([17]; read-out: pTGI (converted)) was 97.7 µM. For the same compound, the GI50 [18] was 16.2 µM, the LC50 (50% lethal concentration) [18] was 55 µM and the TGI ([18]; read-out: pTGI (converted)) was 29.5 µM. For the same compound, the GI50 [19] was 11 µM, the CC50 [19, 34] was 53.7 µM and the TGI ([19]; read-out: pTGI (converted)) was 24 µM. The GI50 [20] was 15.1 µM, the LC50 [20] was over 100 µM and the TGI ([20]; read-out: pTGI (converted)) was 44.7 µM. It also gave a GI50 [21] of 14.8 µM, an LC50 [21] of 52.5 µM and a TGI ([21]; read-out: pTGI (converted)) of 28.2 µM. The GI50 [22] was 15.8 µM, the CC50 [22, 34] was 60.3 µM and the TGI ([22]; read-out: pTGI (converted)) was 30.9 µM. For the same compound, the GI50 [23] was 20.9 µM, the CC50 [23, 34] was over 100 µM and the TGI ([23]; read-out: pTGI (converted)) was 47.9 µM. For the same compound, the GI50 [24] was 38.9 µM, the CC50 [24, 34] was over 100 µM and the TGI ([24]; read-out: pTGI (converted)) was over 100 µM. It also gave a GI50 [25] of 12.6 µM, an LC50 [25] of 51.3 µM and a TGI ([25]; read-out: pTGI (converted)) of 25.1 µM. It also gave a GI50 [26] of 19.1 µM, a CC50 [26, 34] of over 100 µM and a TGI ([26]; read-out: pTGI (converted)) of 44.7 µM. The GI50 [27] was 27.5 µM, the LC50 [27] was over 100 µM and the TGI ([27]; read-out: pTGI (converted)) was over 100 µM. The GI50 [28] was 14.8 µM, the LC50 [28] was 52.5 µM and the TGI ([28]; read-out: pTGI (converted)) was 28.2 µM. It also gave a GI50 [29] of 15.1 µM, a CC50 [29, 34] of over 100 µM and a TGI ([29]; read-out: pTGI (converted)) of 43.7 µM. The GI50 [30] was 21.4 µM, the LC50 [30] was over 100 µM and the TGI ([30]; read-out: pTGI (converted)) was 53.7 µM. The GI50 [31] was 16.6 µM, the CC50 [31, 34] was 70.8 µM and the TGI ([31]; read-out: pTGI (converted)) was 33.9 µM. For the same compound, the GI50 [32] was 12.9 µM, the CC50 [32, 34] was 72.4 µM and the TGI ([32]; read-out: pTGI (converted)) was 30.9 µM. The GI50 [33] was 16.6 µM, the CC50 [33, 34] was over 100 µM and the TGI ([33]; read-out: pTGI (converted)) was 42.7 µM.
